The target of experiment [1] is T1, menin/MLL (terbium chelate-labeled menin, FITC-MBM1 peptide) (Homo sapiens, UniProt O00255, T541A).
T1 construct: Menin (a.a 1-610-6xhis tag)
T1 sequence (O00255 with tags, fused parts or gaps T541A): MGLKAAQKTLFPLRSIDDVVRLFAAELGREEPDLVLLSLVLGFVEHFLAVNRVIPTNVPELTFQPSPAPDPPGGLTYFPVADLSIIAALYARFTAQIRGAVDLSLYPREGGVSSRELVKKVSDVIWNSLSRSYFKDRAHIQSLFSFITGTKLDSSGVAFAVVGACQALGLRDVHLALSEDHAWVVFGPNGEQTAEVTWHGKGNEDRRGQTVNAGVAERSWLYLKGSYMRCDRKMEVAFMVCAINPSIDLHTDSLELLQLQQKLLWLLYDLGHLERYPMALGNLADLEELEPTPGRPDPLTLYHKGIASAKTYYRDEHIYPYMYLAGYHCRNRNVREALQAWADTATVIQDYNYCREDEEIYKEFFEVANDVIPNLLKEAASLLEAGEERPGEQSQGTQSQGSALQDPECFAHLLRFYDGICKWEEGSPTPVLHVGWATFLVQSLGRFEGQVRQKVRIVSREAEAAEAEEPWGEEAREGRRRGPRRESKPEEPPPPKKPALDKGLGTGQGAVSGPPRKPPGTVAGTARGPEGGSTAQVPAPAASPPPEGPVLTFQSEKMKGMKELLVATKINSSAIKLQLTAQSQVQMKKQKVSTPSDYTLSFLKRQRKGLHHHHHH
The experiment in a line: Menin/MLL homogenous time-resolved fluorescence (HTRF) assay. To be noted: 30 min incubation. The class given is binding. In short, it runs like this: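 Compounds were preincubated 30 min at ambient temperature with 200 pM terbium-labeled menin (aa 1-610, His-tagged) in Tris pH 7.5 buffer with DTT and Pluronic, then 75 nM FITC-MBM1 peptide added for 15 min. HTRF ratio 520/490 nm gave % inhibition; IC50 from four-parameter fit, floor 0.1 nM.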
A general note: TR-FRET usually uses a lanthanide donor and a delayed reading to cut background.

Experiment [2] has as its system MOLM14 cells. The experiment in a line: Proliferation assay, spheroid-like growth, MOLM14 (MLL-AF9 rearranged). To be noted: Homo sapiens, MOLM-14, 192 h, 8 days, confluence as measure of spheroid size, read-out: spheroid assay_OneTime MOLM14 IC50. The experiment is classed as cell-based, human. A digest of the protocol: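 IC50 derived from a variable-slope dose-response fit of percent confluence change, with DMSO-treated cells as high control and high-dose reference compound as low control. Spheroid-like growth of MOLM14 (200 cells/well) or KO-52 (300 cells/well) in ultra-low attachment plates, 8 days, 37° C, 5% CO2, DMSO normalised to 0.3%, imaged at day 8.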

For orientation: IC50 means the concentration at which inhibition is half-maximal.

With `CC(=O)N1CC2(C1)CN([C@H]1C[C@H]([C@H](C(C)C)N3CC4(CCN(c5ncnnc5Oc5ccc(F)cc5-c5cnc(C)cc5C5CC5)C4)C3)C1)C2` (single isomer, unassigned) [Compound 372], the IC50 in experiment [1] amounted to 0.2 nM; in experiment [2], 18 nM.
For `Cc1nnc(-c2cnc(N[C@H]3C[C@@H]([C@@H](C(C)C)N4CC5(CCN(c6ncnnc6Oc6ccc(F)cc6-c6cncnc6C6CC6)C5)C4)C3)s2)o1` (single isomer, unassigned) [Compound 445] the same measures were 0.19 nM and 6 nM.
For `CNC(=O)c1cnc(N[C@H]2C[C@@H]([C@@H](C(C)C)N3CC4(CCN(c5ncnnc5Oc5ccc(F)cc5-c5cnc(C)nc5C5CC5)C4)C3)C2)o1` (single isomer, unassigned) [Compound 416] the same measures were 0.17 nM and 8.9 nM.
Turning to `CC(C)[C@@H]([C@H]1C[C@@H](N2C[C@H]3COC[C@H]3C2)C1)N1CC2(CCN(c3ncnnc3Oc3ccc(F)cc3-c3cnncc3C3CC3)C2)C1` (single isomer, unassigned) [Compound 278], the figures for the concentration for half-maximal inhibition (IC50) in experiment [1] and in experiment [2] were 0.1 nM and 2 nM, respectively.
On the same counts, the results for `CNC(=O)c1csc(N[C@H]2C[C@@H]([C@@H](C(C)C)N3CC4(CCN(c5ncnnc5Oc5ccc(F)cc5-c5cncnc5C5CC5)C4)C3)C2)n1` (single isomer, unassigned) [Compound 453] are 0.05 nM and 6 nM.
On the same counts, the results for `CC(C)[C@@H]([C@H]1C[C@@H](N2CC3(CCCO3)C2)C1)N1CC2(CCN(c3ncnnc3Oc3ccc(F)cc3-c3nnccc3C3CC3)C2)C1` (single isomer, unassigned) [Compound 265] are 0.1 nM and 11 nM.
In the case of `CNC(=O)c1cnc(N[C@H]2C[C@@H]([C@@H](C(C)C)N3CC4(CCN(c5ncnnc5Oc5ccc(F)cc5-c5cnc(C)nc5C5CC5)C4)C3)C2)s1` (single isomer, unassigned) [Compound 417], the half-maximal inhibitory concentration (IC50) in experiment [1] was 0.05 nM; in experiment [2], 1.8 nM.
On the same counts, the results for `CC(=O)N1CC2(C1)CN([C@H]1C[C@H]([C@H](C(C)C)N3CC4(CCN(c5ncnnc5Oc5ccc(F)cc5-c5ncc(C)cc5C5CC5)C4)C3)C1)C2` (single isomer, unassigned) [Compound 374] are 0.19 nM and 140 nM.
In the case of `CCOC(=O)c1nnc(N[C@H]2C[C@@H](C(C(C)C)N3CC4(CCN(c5ncnnc5Oc5ccc(F)cc5-c5cncnc5C5CC5)C4)C3)C2)o1` (single isomer, unassigned) [Compound 481], the IC50 in experiment [1] is 0.14 nM; in experiment [2], more than 940 nM.
`CC(=O)N[C@H]1C[C@@H](C(C(C)C)N2CC3(CCN(c4ncnnc4Oc4ccc(F)cc4-c4nnccc4C4CC4)C3)C2)C1` (stereo partly drawn) [Compound 183]: the IC50 in experiment [1] was 0.4 nM; in experiment [2] it was 160 nM.
For `CC(C)[C@H]([C@H]1C[C@@H](Nc2ncnc3[nH]ncc23)C1)N1CC2(CCN(c3ncnnc3Oc3ccc(F)cc3-c3cncnc3C3CC3)C2)C1` (single isomer, unassigned) [Compound 413] the same measures were 0.08 nM and 26 nM.
Take `CC(C)[C@@H]([C@H]1C[C@H](N2CCC3(CCO3)CC2)C1)N1CC2(CCN(c3ncnnc3Oc3ccc(F)cc3-c3cnncc3C3CC3)C2)C1` (single isomer, unassigned) [Compound 281b]: the IC50 is 0.31 nM in experiment [1] and 83 nM in experiment [2].
On the same counts, the results for `CNC(=O)c1cccc(N[C@H]2C[C@@H](C(C(C)C)N3CC4(CCN(c5ncnnc5Oc5ccc(F)cc5-c5cncnc5C5CC5)C4)C3)C2)n1` (single isomer, unassigned) [Compound 450] are 0.08 nM and 7 nM.
Consider `CC(C)[C@H]([C@H]1C[C@@H](N2CC3(CCCO3)C2)C1)N1CC2(CCN(c3ncnnc3Oc3ccc(F)cc3-c3cncnc3C3CC3)C2)C1` (single isomer, unassigned) [Compound 246], for which the IC50 in experiment [1] amounted to 0.3 nM; in experiment [2], 180 nM.
For `CC(C)[C@H]([C@H]1C[C@@H](Nc2ccn3ccnc3c2)C1)N1CC2(CCN(c3ncnnc3Oc3ccc(F)cc3-c3cncnc3C3CC3)C2)C1` (single isomer, unassigned) [Compound 406], the 50% inhibitory concentration (IC50) in experiment [1] was 0.3 nM; in experiment [2] it was 42 nM.
On to `CC(C)[C@@H]([C@H]1C[C@]2(COC(=O)N2)C1)N1CC2(CCN(c3ncnnc3Oc3ccc(F)cc3-c3cnncc3C3CC3)C2)C1` (single isomer, unassigned) [Compound 323], for which the IC50 in experiment [1] came to 0.2 nM; in experiment [2], 53 nM.
On the same counts, the results for `CC(C)C([C@H]1C[C@@H](Nc2ncccn2)C1)N1CC2(CCN(c3ncnnc3Oc3ccc(F)cc3-c3cncnc3C3CC3)C2)C1` (stereo partly drawn) [Compound 192] are 4.8 nM and 1040 nM.
On the same counts, the results for `Cc1ncc(-c2cc(F)ccc2Oc2nncnc2N2CCC3(C2)CN([C@@H](C(C)C)[C@H]2C[C@@H](N4CC[C@H](C(=O)NC5CC5)C4)C2)C3)c(C2CC2)n1` [Compound 384] are 0.085 nM and 0.7 nM.
Turning to `CO[C@H]1[C@@H]2CN([C@H]3C[C@@H]([C@H](C(C)C)N4CC5(CCN(c6ncnnc6Oc6ccc(F)cc6-c6nnc(C)cc6C6CC6)C5)C4)C3)C[C@@H]21` [Compound 402], the IC50 came to 0.17 nM in experiment [1] and 9 nM in experiment [2].
On the same counts, the results for `CC(C)[C@H]([C@H]1C[C@@H](Nc2ccnc3[nH]c(=O)ccc23)C1)N1CC2(CCN(c3ncnnc3Oc3ccc(F)cc3-c3cncnc3C3CC3)C2)C1` (single isomer, unassigned) [Compound 420] are approximately 0.39 nM and 290 nM.
As for `CC(C)[C@@H]([C@H]1C[C@@H](N2CC3(CCCCO3)C2)C1)N1CC2(CCN(c3ncnnc3Oc3ccc(F)cc3-c3nnccc3C3CC3)C2)C1` (single isomer, unassigned) [Compound 266], the IC50 in experiment [1] is 0.1 nM; in experiment [2] it was less than 2 nM.
Regarding `CC(C)[C@@H]([C@H]1C[C@@H](N2CCC3(CCO3)C2)C1)N1CC2(CCN(c3ncnnc3Oc3ccc(F)cc3-c3nnccc3C3CC3)C2)C1` (single isomer, unassigned) [Compound 268], the IC50 in experiment [1] came out at 0.1 nM; in experiment [2], 6 nM.
For `Cc1ncc(-c2cc(F)ccc2Oc2nncnc2N2CCC3(C2)CN([C@@H](C(C)C)[C@H]2C[C@@H](N4C[C@H]5COC[C@H]5C4)C2)C3)c(C2CC2)n1` [Compound 396] the same measures were 0.059 nM and less than 1.8 nM.
Regarding `CCOC(=O)c1sc(N[C@H]2C[C@@H](C(C(C)C)N3CC4(CCN(c5ncnnc5Oc5ccc(F)cc5-c5cncnc5C5CC5)C4)C3)C2)nc1C` (single isomer, unassigned) [Compound 483], the IC50 is 0.07 nM in experiment [1] and 17 nM in experiment [2].
Turning to `COC1(C)CN([C@H]2C[C@@H]([C@H](C(C)C)N3CC4(CCN(c5ncnnc5Oc5ccc(F)cc5-c5nnccc5C5CC5)C4)C3)C2)C1` (single isomer, unassigned) [Compound 263], the values for the IC50 in experiment [1] and in experiment [2] were 0.2 nM and 9 nM, respectively.
Consider `CC(C)C([C@H]1C[C@@H](NC(=O)OC(C)(C)C)C1)N1CC2(CCN(c3ncnnc3Oc3ccc(F)cc3-c3cncnc3C3CC3)C2)C1` (single isomer, unassigned) [Compound 491a], for which the IC50 was 0.13 nM in experiment [1] and 4.9 nM in experiment [2].
Take `CC(=O)N[C@H]1[C@@H]2CN([C@H]3C[C@@H]([C@H](C(C)C)N4CC5(CCN(c6ncnnc6Oc6ccc(F)cc6-c6cnc(C)nc6C6CC6)C5)C4)C3)C[C@@H]21` [Compound 390]: the figures for the IC50 in experiment [1] and in experiment [2] were 0.18 nM and 4 nM, respectively.
On the same counts, the results for `CCOC(=O)c1nnc(N[C@H]2C[C@@H](C(C(C)C)N3CC4(CCN(c5ncnnc5Oc5ccc(F)cc5-c5cncnc5C5CC5)C4)C3)C2)s1` (single isomer, unassigned) [Compound 482] are 0.18 nM and 15 nM.
On the same counts, the results for `Cc1nnc(-c2cc(N[C@H]3C[C@@H]([C@@H](C(C)C)N4CC5(CCN(c6ncnnc6Oc6ccc(F)cc6-c6cncnc6C6CC6)C5)C4)C3)ccn2)[nH]1` (single isomer, unassigned) [Compound 430] are 0.11 nM and 3.4 nM.
For the compound `CO[C@H]1[C@@H]2CN([C@H]3C[C@H]([C@H](C(C)C)N4CC5(CCN(c6ncnnc6Oc6ccc(F)cc6-c6nnc(C)cc6C6CC6)C5)C4)C3)C[C@@H]21` [Compound 403], the figures for the IC50 in experiment [1] and in experiment [2] were 0.59 nM and 230 nM, respectively.

For the origin of these results see patent publication US20240417405A1, “Substituted Spiro Derivatives” (Janssen Pharmaceutica NV, priority 2021, published 2024).
